Measurements taken from ChEMBL document CHEMBL1136905, “Substituted isoxazole analogs of farnesoid X receptor (FXR) agonist GW4064” (Bioorg Med Chem Lett, 2009).
pEC50: −log10 of the molar value.

Assays:
[1] = target: T1, Bile acid receptor (Homo sapiens) (UniProt Q96RI1); test: Agonist activity at human FXR assessed as SRC1 peptide interaction with receptor ligand binding domain by FRET assay relative to GW-4064
T1 sequence (whole entry): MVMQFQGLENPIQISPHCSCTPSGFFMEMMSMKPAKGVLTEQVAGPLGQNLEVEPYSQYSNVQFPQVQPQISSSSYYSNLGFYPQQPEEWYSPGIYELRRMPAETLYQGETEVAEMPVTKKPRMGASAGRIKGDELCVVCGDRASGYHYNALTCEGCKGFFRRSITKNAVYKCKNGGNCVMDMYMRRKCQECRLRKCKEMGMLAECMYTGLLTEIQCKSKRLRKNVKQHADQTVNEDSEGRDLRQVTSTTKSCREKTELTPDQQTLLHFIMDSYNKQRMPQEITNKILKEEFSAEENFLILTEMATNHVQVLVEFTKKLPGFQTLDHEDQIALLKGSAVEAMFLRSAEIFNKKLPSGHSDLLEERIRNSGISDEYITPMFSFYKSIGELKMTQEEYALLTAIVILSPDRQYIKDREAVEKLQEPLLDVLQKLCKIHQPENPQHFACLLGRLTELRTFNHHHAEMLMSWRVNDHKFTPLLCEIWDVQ

[2] = target: T1, Bile acid receptor (Homo sapiens); test: Agonist activity at human FXR transfected in african green monkey CV1 cells by luciferase reporter gene transient transfection assay relative to GW-4064; type: functional, cell-based; conditions: CV-1
[3] = Total clearance in iv dosed rat; type: ADME, organism-based; conditions: in vivo
Bile acid receptor [4] = target: T2, Bile acid receptor (Homo sapiens, UniProt Q96RI1); test: Agonist activity at human FXR transfected in african green monkey CV1 cells by luciferase reporter gene transient transfection assay; type: functional, cell-based, CV-1
T2 sequence (Q96RI1 whole entry): T1 sequence (whole entry)

Bile acid receptor [5] = target: T2, Bile acid receptor; test: Agonist activity at human FXR assessed as SRC1 peptide interaction with receptor ligand binding domain by FRET assay
Bile acid receptor [6] = target: T2, Bile acid receptor; test: Agonist activity at human FXR assessed as SRC1 coactivator peptide recruitment by cell free FRET assay; type: functional
[7] = Terminal half life in iv dosed rat; type: ADME, organism-based; conditions: in vivo, read-out: beta t1/2
[8] = Volume of distribution at steady state in iv dosed rat; type: ADME, organism-based; conditions: in vivo, read-out: Vdss
[9] = Oral bioavailability in rat; type: ADME, organism-based; conditions: in vivo

CC(C)c1onc(-c2c(Cl)cccc2Cl)c1COc1ccc(/C=C/c2cccc(C(=O)O)c2)c(Cl)c1
%max [1]: 100%
%max [2]: 100%
clearance [3]: 36 mL/min/kg

CC(C)c1onc(CCc2c(Cl)cccc2Cl)c1COc1ccc(/C=C/c2cccc(C(=O)O)c2)c(Cl)c1
%max [1]: 105%
pEC50 (Bile acid receptor [4]): 7.32
pEC50 (Bile acid receptor [5]): 6.82
%max [2]: 104%

CC(C)c1onc(COc2cccc(Cl)c2)c1COc1ccc(/C=C/c2cccc(C(=O)O)c2)c(Cl)c1
%max [1]: 51%
pEC50 (Bile acid receptor [6]): 5.70
pEC50 (Bile acid receptor [5]): 6.51
%max [2]: 42%

CC(C)c1onc(CCCc2ccccc2)c1COc1ccc(/C=C/c2cccc(C(=O)O)c2)c(Cl)c1
%max [1]: 44%
pEC50 (Bile acid receptor [4]): 5.92
pEC50 (Bile acid receptor [5]): 5.36
%max [2]: 68%

CC(C)c1onc(COc2ccc3ccccc3c2)c1COc1ccc(/C=C/c2cccc(C(=O)O)c2)c(Cl)c1
%max [1]: 65%
pEC50 (Bile acid receptor [4]): 5.64
pEC50 (Bile acid receptor [5]): 6.03
%max [2]: 27%

CC(C)c1onc(CNc2c(Cl)cncc2Cl)c1COc1ccc(/C=C/c2cccc(C(=O)O)c2)c(Cl)c1
%max [1]: 68%
pEC50 (Bile acid receptor [4]): 6.38
pEC50 (Bile acid receptor [5]): 6.40
%max [2]: 31%

CC(C)c1onc(COC(C)(C)C)c1COc1ccc(/C=C/c2cccc(C(=O)O)c2)c(Cl)c1
%max [1]: 77%
pEC50 (Bile acid receptor [4]): 6.22
pEC50 (Bile acid receptor [5]): 6.18
%max [2]: 132%

CC(C)c1onc(COc2cc(Cl)ccc2Cl)c1COc1ccc(/C=C/c2cccc(C(=O)O)c2)c(Cl)c1
%max [1]: 83%
pEC50 (Bile acid receptor [4]): 6.05
pEC50 (Bile acid receptor [5]): 6.00
%max [2]: 37%

CC[C@H](C)c1onc(-c2c(Cl)cccc2Cl)c1COc1ccc(/C=C/c2cccc(C(=O)O)c2)c(Cl)c1
%max [1]: 96%
pEC50 (Bile acid receptor [4]): 6.54
pEC50 (Bile acid receptor [5]): 6.72
%max [2]: 99%

CC(C)c1onc(COc2ccccc2)c1COc1ccc(/C=C/c2cccc(C(=O)O)c2)c(Cl)c1
%max [1]: 55%
pEC50 (Bile acid receptor [4]): 5.92
pEC50 (Bile acid receptor [5]): 5.96
%max [2]: 27%

CC(C)c1onc(COc2cc(Cl)cc(Cl)c2)c1COc1ccc(/C=C/c2cccc(C(=O)O)c2)c(Cl)c1
%max [1]: 40%
pEC50 (Bile acid receptor [6]): < 5.00
pEC50 (Bile acid receptor [5]): 5.96

O=C(O)c1cccc(/C=C/c2ccc(OCc3c(-c4c(Cl)cccc4Cl)noc3C3CCC3)cc2Cl)c1
%max [1]: 67%
pEC50 (Bile acid receptor [4]): 6.85
pEC50 (Bile acid receptor [5]): 6.39
%max [2]: 100%

CC(C)c1onc(-c2c(Cl)cncc2Cl)c1COc1ccc(/C=C/c2cccc(C(=O)O)c2)c(Cl)c1
%max [1]: 97%
pEC50 (Bile acid receptor [4]): 7.28
pEC50 (Bile acid receptor [5]): 6.82
%max [2]: 88%
half-life [7]: 52 min
clearance [3]: 48 mL/min/kg
Vd [8]: 1.1 L/kg
bioavailability [9]: 7.8%

Cc1cccc(C)c1OCc1noc(C(C)C)c1COc1ccc(/C=C/c2cccc(C(=O)O)c2)c(Cl)c1
%max [1]: 110%
pEC50 (Bile acid receptor [4]): 7.25
pEC50 (Bile acid receptor [5]): 7.77
%max [2]: 118%

CC(C)c1onc(CCc2ccccc2)c1COc1ccc(/C=C/c2cccc(C(=O)O)c2)c(Cl)c1
%max [1]: 96%
pEC50 (Bile acid receptor [4]): 7.03
pEC50 (Bile acid receptor [5]): 6.49
%max [2]: 110%

CC(C)c1onc(COc2c(F)cccc2Cl)c1COc1ccc(/C=C/c2cccc(C(=O)O)c2)c(Cl)c1
%max [1]: 103%
pEC50 (Bile acid receptor [4]): 6.54
pEC50 (Bile acid receptor [5]): 7.13
%max [2]: 121%

CC(C)c1onc(COc2ccc(Cl)cc2)c1COc1ccc(/C=C/c2cccc(C(=O)O)c2)c(Cl)c1
%max [1]: 58%
pEC50 (Bile acid receptor [4]): 5.89
pEC50 (Bile acid receptor [5]): 6.35
%max [2]: 53%

CC(C)c1onc(CSc2c(Cl)cccc2Cl)c1COc1ccc(/C=C/c2cccc(C(=O)O)c2)c(Cl)c1
%max [1]: 110%
pEC50 (Bile acid receptor [4]): 7.00
pEC50 (Bile acid receptor [5]): 7.29
%max [2]: 86%

CC(C)c1onc(CS(=O)(=O)c2c(Cl)cccc2Cl)c1COc1ccc(/C=C/c2cccc(C(=O)O)c2)c(Cl)c1
%max [1]: 100%
pEC50 (Bile acid receptor [4]): 6.41
pEC50 (Bile acid receptor [5]): 6.82
%max [2]: 68%

CC(C)c1onc(COc2cccc3ccccc23)c1COc1ccc(/C=C/c2cccc(C(=O)O)c2)c(Cl)c1
%max [1]: 79%
pEC50 (Bile acid receptor [4]): 5.92
pEC50 (Bile acid receptor [5]): 6.02
%max [2]: 34%

CC(C)c1onc([C@H]2C[C@@H]2c2c(Cl)cccc2Cl)c1COc1ccc(/C=C/c2cccc(C(=O)O)c2)c(Cl)c1 (relative stereo)
%max [1]: 38%
pEC50 (Bile acid receptor [6]): < 5.00
pEC50 (Bile acid receptor [5]): 5.70

CCC(CC)c1onc(-c2c(Cl)cccc2Cl)c1COc1ccc(/C=C/c2cccc(C(=O)O)c2)c(Cl)c1
%max [1]: 82%
pEC50 (Bile acid receptor [6]): 6.55
pEC50 (Bile acid receptor [5]): 5.66
%max [2]: 71%

CC(C)c1onc(Cc2ccccc2)c1COc1ccc(/C=C/c2cccc(C(=O)O)c2)c(Cl)c1
%max [1]: 67%
pEC50 (Bile acid receptor [4]): 6.64
pEC50 (Bile acid receptor [5]): 6.26
%max [2]: 120%

Cc1cc(Cl)cc(C)c1OCc1noc(C(C)C)c1COc1ccc(/C=C/c2cccc(C(=O)O)c2)c(Cl)c1
%max [1]: 99%
pEC50 (Bile acid receptor [4]): 6.96
pEC50 (Bile acid receptor [5]): 6.89
%max [2]: 66%

CC(C)c1onc(COc2c(Cl)cc(Cl)cc2Cl)c1COc1ccc(/C=C/c2cccc(C(=O)O)c2)c(Cl)c1
%max [1]: 101%
pEC50 (Bile acid receptor [4]): 6.70
pEC50 (Bile acid receptor [5]): 7.24
%max [2]: 68%

CC(C)c1onc(COc2ccccc2Cl)c1COc1ccc(/C=C/c2cccc(C(=O)O)c2)c(Cl)c1
%max [1]: 82%
pEC50 (Bile acid receptor [6]): 7.09
pEC50 (Bile acid receptor [5]): 6.34
%max [2]: 71%

O=C(O)c1cccc(/C=C/c2ccc(OCc3c(-c4c(Cl)cccc4Cl)noc3C3CCCC3)cc2Cl)c1
%max [1]: 81%
pEC50 (Bile acid receptor [4]): 6.62
pEC50 (Bile acid receptor [5]): 6.25
%max [2]: 75%

CC(C)c1onc(CSc2nnnn2C)c1COc1ccc(/C=C/c2cccc(C(=O)O)c2)c(Cl)c1
%max [1]: 59%
pEC50 (Bile acid receptor [4]): 5.68
pEC50 (Bile acid receptor [5]): 6.03
%max [2]: 45%

CC(C)c1onc(COc2c(F)cccc2F)c1COc1ccc(/C=C/c2cccc(C(=O)O)c2)c(Cl)c1
%max [1]: 100%
pEC50 (Bile acid receptor [4]): 6.14
pEC50 (Bile acid receptor [5]): 5.66
%max [2]: 112%

CC[C@@H](C)c1onc(-c2c(Cl)cccc2Cl)c1COc1ccc(/C=C/c2cccc(C(=O)O)c2)c(Cl)c1
%max [1]: 100%
pEC50 (Bile acid receptor [4]): 7.03
pEC50 (Bile acid receptor [5]): 6.98
%max [2]: 105%

CC(C)c1onc(COc2ccc(Cl)c(Cl)c2)c1COc1ccc(/C=C/c2cccc(C(=O)O)c2)c(Cl)c1
%max [1]: 57%
pEC50 (Bile acid receptor [6]): < 5.00
pEC50 (Bile acid receptor [5]): 5.96

CC(C)c1onc(CO)c1COc1ccc(/C=C/c2cccc(C(=O)O)c2)c(Cl)c1
%max [1]: 22%
pEC50 (Bile acid receptor [4]): < 5.00
pEC50 (Bile acid receptor [5]): 5.11

CC(C)c1onc(COc2cccc(Cl)c2Cl)c1COc1ccc(/C=C/c2cccc(C(=O)O)c2)c(Cl)c1
%max [1]: 82%
pEC50 (Bile acid receptor [4]): 6.20
pEC50 (Bile acid receptor [5]): 6.32
%max [2]: 38%

Cc1cccc(Cl)c1OCc1noc(C(C)C)c1COc1ccc(/C=C/c2cccc(C(=O)O)c2)c(Cl)c1
%max [1]: 106%
pEC50 (Bile acid receptor [4]): 6.82
pEC50 (Bile acid receptor [5]): 7.32
%max [2]: 111%

CC(C)c1onc(COc2c(F)cc(F)cc2F)c1COc1ccc(/C=C/c2cccc(C(=O)O)c2)c(Cl)c1
%max [1]: 106%
pEC50 (Bile acid receptor [4]): 6.52
pEC50 (Bile acid receptor [5]): 6.96
%max [2]: 95%

CC(C)c1onc(COc2ccc(Cl)cc2Cl)c1COc1ccc(/C=C/c2cccc(C(=O)O)c2)c(Cl)c1
%max [1]: 72%
pEC50 (Bile acid receptor [4]): 6.16
pEC50 (Bile acid receptor [5]): 6.21
%max [2]: 39%
